In patent publication US20100240746A1, “STEREOISOMERS OF TRICYCLODECAN-9-YL-XANTHOGENATE” (LUMAVITA AG, priority 2007, published 2010):
Values after ≈ are worked out from the molar mass of the structure shown.

Experiments:
HPV-31 specific DNA [1] = experiment: Long-term study: HPV-31 specific DNA level (Southern blot); assay type: cell-based, human papilloma virus; conditions: for T50 DNA: at 10 μg/mL
Procedure: (§1) HPV-31 infected cells (3×10^6) were dispensed into 14.5 cm dishes containing fresh E medium and 1×10^6 cells of mitomycin C-treated 3T3 fibroblast feeders. The dishes were incubated in a CO2 incubator under 5% CO2 at 37° C. in 100% humidity. Human A431 epithelial cancer cells were used as HPV-uninfected negative controls. After 6 hr incubation, the cell culture medium was removed and fresh E medium containing 0.85 g/L NaHCO3 and a test compound at concentrations of 10 and 3.3 μg/mL, or control (interferon γ at 200 IU/mL) were added. For each concentration, 4 dishes were prepared. The dishes were incubated at 37° C. in a CO2 incubator. The culture medium was replaced to new E medium containing each concentration of the test compound or control in every 72 hrs. After seven days, or when untreated cells became confluent, one dish of each group was harvested for DNA/RNA extraction, followed by Southern/Northern Blot analysis; and one dish was trypsinized, cell number were determined and cells were seeded in three new dishes, treated and cultured as described above. This procedure was repeated for 9 passages. During these passages, morphology of cells and cell density were monitored.
(§2) Effect on HPV-31 specific DNA and RNA: DNA and RNA were analyzed in Southern and Northern Blot gels for HPV-31 specific sequences. X-ray films were scanned and optical densities of HPV-31 specific DNA and major mRNA species were integrated. Time curves were established by plotting integrated values against number of passages for each treatment dose. The T50 (time required to reduce the level to 50% of control) was determined from the time curves from crossing points of time curves with a line parallel to the x-axis corresponding to 50% of integrals of untreated control sample.

HPV-31 specific RNA [2] = experiment: Long-term study: HPV-31 specific RNA level (Northern blot); assay type: cell-based, human papilloma virus; conditions: for T50 RNA: at 10 μg/mL
Procedure: as §1, §2

HPV-31 specific DNA [3] = experiment: Short-term study: HPV-31 specific DNA (Southern blot); assay type: cell-based, human papilloma virus; conditions: at 32 μg/mL, 72 hrs
Procedure: (§3) Effect on HPV-31 specific DNA and RNA. HPV-31 infected cells (3×10^6) were dispensed into 14.5 cm dishes containing fresh E culture medium and 1×10^6 mitomycin C-treated J2 3T3 fibroblast feeders. After 6 hrs, fresh medium containing 0.85 g/L NaHCO3 and a test compound at a series of concentrations (0, 0.5, 1, 2, 4, 8, 16, and 32 μg/mL) were added. All samples were tested in duplicates at each concentration. After incubation at 37° C. for 72 hrs, the feeder cells were removed with 4 mM EDTA, and DNA and RNA was then isolated. The isolated DNA and RNA were analyzed in Southern and Northern Blot gels for HPV-31 specific sequences. Human A431 epithelial cancer cells were used as HPV-uninfected negative control. X-ray films were scanned and optical densities of HPV-31 specific DNA and major mRNA species were integrated.
(§4) Dose response curves were established by plotting integrated values against the concentrations of the test compound.

[4] = system: HPV-31-infected CIN612 9E keratinocytes; experiment: Long-term study: cell proliferation and morphology of CIN612 9E cells over 9 passages; assay type: cell-based
Procedure: as §1
Effect on cell proliferation. Cell numbers in the dishes harvested were determined in a Neubauer hematocytometer. The multiplication factor was determined at every step of passage. The cell number of each culture at the end of the passage was divided by the number of seeded cells at the start of each passage. The end point was reached when keratinocytes treated with a test compound stopped growing. Stop of cell growth was defined as a multiplication factor of no greater than 1.

HPV-31 specific RNA [5] = experiment: Short-term study: HPV-31 specific RNA expression (Northern blot); assay type: cell-based, human papilloma virus; conditions: 72 hrs
Procedure: as §3, §4

Calu-6 cells = experiment: Cytotoxicity assay in Calu-6 cells (crystal violet); assay type: cell-based; conditions: 48 hr
Procedure: (§5) Calu-6 cells and RITA cells were grown in DMEM cell culture medium containing 10% fetal calf serum in CO2 incubator under 5% CO2 at 37° C. with 100% humidity.
(§6) For cytotoxicity assay, Calu-6 cells were seeded in 96 well plates at a density of 3×10^6 cells per plate in the DMEM cell culture medium. The plates were incubated at 37° C. in the presence of 5% CO2 for 24 hr. The DMEM cell culture medium in the plates was exchanged with fresh DMEM cell culture medium containing test compounds at a series of concentrations. The plates were incubated at 37° C. in the presence of 5% CO2 for 48 hr. The plates were then washed with PBS, fixed with 3% formaldehyde solution containing 0.9% NaCl for 1 min, washed by water for 10 sec, and dried overnight. For detection, the plates were stained with crystal violet solution for 5 min at room temperature, washed 5 times with water, and dried at room temperature overnight. After adding ethanol/acetic acid (99:1, v/v, […]) to each well, the plates were measured at 595 nm using an ELISA reader. A dose response curve was obtained for each compound tested by plotting the mean values of the optical densities against compound concentration.

[6] = target: T1, phosphatidylcholine-specific phospholipase C (PC-PLC) (Bacillus cereus, UniProt P09598); experiment: Amplex Red phosphatidylcholine-specific phospholipase C (PC-PLC) inhibition assay; assay type: biochemical, B. cereus; conditions: 30 min at 37° C., triplicate
T1 construct: purchased Invitrogen
T1 sequence (P09598 39-283 limits assumed): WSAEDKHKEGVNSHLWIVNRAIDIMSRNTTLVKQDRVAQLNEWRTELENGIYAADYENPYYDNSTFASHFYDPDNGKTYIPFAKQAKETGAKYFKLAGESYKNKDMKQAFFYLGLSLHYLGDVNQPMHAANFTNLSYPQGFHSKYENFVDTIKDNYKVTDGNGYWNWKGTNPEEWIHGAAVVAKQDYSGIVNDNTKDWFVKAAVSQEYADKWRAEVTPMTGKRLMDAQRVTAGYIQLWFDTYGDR
Procedure: (§7) The inhibitory activities of optically active potassium salts of (+)- and (−)-O-exo/C-exo-tricyclo [5.2.1.0^2,6]-dec-9-yl-xanthic acid 1A ((+)- and (−)-enantiomers 1A) against phosphatidylcholine-specific phospholipase C were evaluated, together with D609 and potassium salt of racemic O-exo/C-exo xanthic acid 1A (racemic 1A), using Amplex Red phosphatidylcholine-specific phospholipase C(PC-PLC) assay kit, which was obtained from Invitrogen (Calsbad, Calif.). D609 was obtained from Sigma Aldrich.
(§8) An Amplex Red stock solution (˜20 mM), a working reaction buffer, and a horseradish peroxidase stock solution (200 U/mL), a H2O2 working solution (20 mM), a choline oxidate stock solution (20 U/mL), an alkaline phosphatase stock solution (400 U/mL), and a B. cereus PC-PLC stock solution (10 U/mL) were prepared according to the instruction of the assay kit. The stock solution (100 mg/mL) for each test compound was also prepared by dissolving the compound in water 2 hr prior to the start of the experiment.
(§9) A working Amplex Red/HRP/lecithin solution was prepared by adding 200 μL of Amplex Red reagent stock solution, 100 μL of HRP stock solution, 200 μL of alkaline phosphatase stock solution, 100 μL of choline oxidase stock solution, and 78 μL of the lecithin solution to […] of the working reaction buffer. PC-PLC solution (0.2 U/mL) was prepared by diluting the PC-PLC stock solution with the working reaction buffer to the desired concentration.
(§10) The test compound (25 μL) at a serious of concentrations was pipetted into a 96 well plate. For uninhibited PC-PLC controls and non-PC-PLC controls, 25 μL of water was added. After the addition of 50 μL of the Amplex Red/HRP/lecithin working solution, the reaction was initiated by adding 25 μL of PC-PLC solution to each well. To the non-PC-PLC controls, 25 μL of water was added instead of PC-PLC solution. The experiment was performed in triplicate. The reactions were protected from light. After incubated for 30 min at 37° C., the reactions were measured with a fluorescence microplate reader using excitation at 550 nm and emission detection at 590 nm. The fluorescent data obtained were corrected for background fluorescence by subtracting the values obtained from the non-PC-PLC controls.

[7] = system: phosphatidylcholine-specific phospholipase C (PC-PLC); conditions: Amtmann 1996; Muller-Decker 1989; cited from earlier work
[8] = system: Herpes simplex virus type-2 (HSV-2); experiment: Inhibition of HSV-2 (plaque assay; Calu-6 infected, RITA cells for plaques); assay type: cell-based
Procedure: as §5
For HSV-2 inhibition, Calu-6 cells were seeded in 96 well plates at a density of 3×10^6 cells per plate in the DMEM cell culture medium. The plates were incubated at 37° C. in the presence of 5% CO2 for 24 hr. The DMEM cell culture medium in the plates was removed and the cells were infected with Herpes simplex virus type-2 at 50 plaque forming units per well. After incubation at 37° C. for 60 min, test compounds in DMEM cell culture medium at a series of concentrations were added. The plates were incubated at 37° C. in the presence of 5% CO2 for 48 hr. The plates were frozen at −20° C. prior to further analysis. After thawing at room temperature, supernatants containing infectious virus particles were prepared by centrifuging the supernatant from each well at 18,000 g at 4° C. for 5 min. The supernatant was further diluted before assay.
RITA cells were seeded in 24 well Linbra plates at a density of 4×10^6 cells per plate in 2 mL of DMEM cell culture medium. The plates were incubated at 37° C. in the presence of 5% CO2 for 24 hr. After the removal of the cell culture medium, 0.1 mL of the diluted supernatants was added and the plates were incubated at 37 C for 1 hr. DMEM cell medium containing 10% fetal calf serum and 0.5% methyl cellulose was added and the plates were incubated at 37 for 48 hr. The plates were then washed with PBS, fixed with 3% formaldehyde solution containing 0.9% NaCl for 1 min, washed by water for 10 sec, and dried overnight. For detection, the plates were then stained with crystal violet solution for 5 min at room temperature, washed 5 times with water, and dried at room temperature overnight. The number of plaques was determined macroscopically. The number of plaques per well was then multiplied with the dilution factor. Dose response curves were obtained by plotting the number of plaques/0.1 mL against compound concentration. The therapeutic index was also calculated for each compound by dividing LD50 with IC50.

[9] = target: T2, B. cereus PC-PLC (phosphatidylcholine-specific phospholipase C) (Bacillus cereus, UniProt P09598); experiment: Inhibition of phosphatidylcholine-specific phospholipase C (Amplex Red PC-PLC assay kit); assay type: biochemical
T2 construct: purchased Invitrogen
T2 sequence (P09598 39-283 limits assumed): as above
Procedure: as §7, §8, §9
as §10, with “To the non-PC-PLC controls, 25 μL of water was added instead of PC-PLC solution. The experiment was performed in triplicate. The reactions were protected from light.” left out

[10] = Cytotoxicity assay in Calu-6 cells; assay type: cell-based; conditions: human, 37° C., read-out: LD50
Procedure: as §5, §6

[11] = system: bovine papilloma virus type I (BPV-1)-transformed HEF (HEF-BPV); experiment: Inhibition of bovine papilloma virus, BPV-infected hamster embryo fibroblasts (HEF) cell proliferation assay; assay type: cell-based; conditions: Bos taurus papillomavirus 1; HEF-BPV, 72 hr, 37° C., pH 6.8; read-out: IC50
Procedure: Briefly, hamster embryo fibroblasts and bovine papilloma virus type I (BPV-1)-transformed HEF (HEF-BPV) were grown in Eagle's basal medium. […] and HEF cells were seeded in 96-well plates at a density of 0.5×10^6 cells per plate in DMEM cell culture medium containing 10% fetal calf serum at pH 6.8. The plates were then incubated in the presence of 5% CO2 in 100% humidity at 37° C. After 6 hr, the cell culture medium in the plates was exchanged with fresh DMEM cell culture medium containing test compounds at a series of concentrations. The plates were incubated at 37° C. for additional 72 hr. Cells in the plates were then washed with PBS, fixed with 3% formaldehyde solution containing 0.9% NaCl for 1 min, washed by water for 10 sec, and dried overnight. For detection, the plates were stained with crystal violet solution for 5 min at room temperature, washed 5 times with water, and dried at room temperature overnight. After adding ethanol/acetic acid (99:1, v/v, […]) to each well, the plates were measured at 595 nm using an ELISA reader.

With `S=C(S)OC1CC2CC1C1CCCC21` (single isomer, unassigned; enantiomer 1a) [(−)-Enantiomer 1A, (−)-O-exo/C-exo-tricyclo[5.2.1.0^2,6]-dec-9-yl-xanthic acid 1A] as the molecule, how does the “number of viral genomes per cell remaining” value (HPV-31 specific DNA [1]; 10 μg/mL, after 6 passages) read?
Its value is less than 5%.

What about the “viral DNA remaining” value (HPV-31 specific DNA [1]; 10 μg/mL, after 9 passages) of the same molecule?
The value was less than 1%.

What about the “reduction of the number of viral genomes per cell” value (HPV-31 specific DNA [1]; 10 μg/mL, after a single passage) of the same molecule?
The value was “more than 50%”.

What about the “T50 DNA” value (HPV-31 specific DNA [1]; listed as (−)-enantiomer 1A) of the same molecule?
The value was less than 1 passages.

And the “T50 DNA” value (HPV-31 specific DNA [1]; listed as Cmpd 1A)?
Its value is less than 1 passages.

And the “viral RNA remaining” value (HPV-31 specific RNA [2]; 10 μg/mL, after 9 passages)?
The value was less than 1%.

And the “T50 RNA” value (HPV-31 specific RNA [2]; listed as (−)-enantiomer 1A)?
The value was less than 1 passages.

What about the “T50 RNA” value (HPV-31 specific RNA [2]; listed as Cmpd 1A) of the same molecule?
Its value is less than 1 passages.

And the “inhibition of HPV-31 specific DNA” value (HPV-31 specific DNA [3])?
The value was 37.5%.

What about the multiplication factor ([4]; 3.3 μg/mL, passage 1) of the same molecule?
Its multiplication factor is 2.9.

What about the multiplication factor ([4]; 3.3 μg/mL, passage 9) of the same molecule?
The multiplication factor was 1.1.

What about the multiplication factor ([4]; 10 μg/mL, from passage 7 on) of the same molecule?
The multiplication factor was less than 1.

What about the multiplication factor ([4]; 10 μg/mL, passage 5) of the same molecule?
The multiplication factor was 2.4.

And the multiplication factor ([4]; 10 μg/mL, passage 6)?
The multiplication factor was 1.3.

And the multiplication factor ([4]; 10 μg/mL, passage 9)?
The multiplication factor was 0.1.

What about the “IC50 on the inhibition of HPV-31 specific RNA expression” value (HPV-31 specific RNA [5]) of the same molecule?
The value was 10.7 µg/mL.

And the LD50 (Calu-6 cells)?
The LD50 was 94.32 ± 7.33 µg/mL.

What about the IC50 [6] of the same molecule?
Its IC50 is 3.62 ± 0.17 µg/mL (≈ 15.9 µM).

For `S=C(S)OC1CC2CC1C1CCCC21` (centres unmarked) [Compound D609, tricyclodecan-9-yl-xanthogenate], which “inhibition of phosphatidylcholine-specific phospholipase C” value [7] is on record?
The value was “specific inhibitor”.

And the IC50 ([8]; Human alphaherpesvirus 2, Calu-6 cells, 48 hr, 50 plaque forming units per well, read-out: IC50)?
The IC50 was 30.2 ± 6.77 µg/mL (≈ 132 µM).

And the “Therapeutic Index” value ([8]; LD50 (Calu-6) divided by IC50 (HSV-2), 2880 min)?
The value was 3.5.

And the IC50 [9]?
Its IC50 is 89.7 µM.

And the CC50 at 48 h [10]?
The CC50 at 48 h was 105 ± 22 µg/mL (≈ 461 µM).

And the IC50 [11]?
Its IC50 is 21.6 ± 1.85 µg/mL (≈ 94.8 µM).

And the LD50 (Calu-6 cells)?
The LD50 was 105.18 ± 21.97 µg/mL.

And the IC50 [6]?
Its IC50 is 20.49 ± 1.99 µg/mL (≈ 89.7 µM).
